In BigSolDB 2.1:

CC1(C)O[C@H]2CC(=O)OC[C@]23[C@H]2CC[C@@]4(C)[C@H](c5ccoc5)OC(=O)[C@H]5O[C@]54[C@]2(C)C(=O)C[C@@H]13
solubility (mole fraction)
Settings	283.2 K	288.2 K	293.2 K	298.2 K	303.2 K	308.2 K	313.2 K	318.2 K
in acetone	0.00409	0.00454	0.00465	0.00471	0.00474	0.00497	0.00516	0.0055
in methanol	7.08e-05	7.81e-05	9.2e-05	0.000101	0.00012	0.000137	0.000162	0.000192
in water	1.17e-07	2.37e-07	4.77e-07	5.97e-07	8.3e-07	1.04e-06	1.17e-06	1.49e-06
